Key:
[1] = system: retinal glial cells (GFAP expression); test: GFAP immunolabeling of retinal glia after subretinal injection; format: in vivo, mouse; conditions: adult wild-type mice
Method: Mice were anesthetized by intraperitoneal injection of ketamine (62.5 mg/kg) and xylazine (12.5 mg/kg) and transcardially perfused with phosphate buffered saline (PBS) followed by 4% paraformaldehyde in PBS. Retinal flat-mounts or transverse retinal sections (14 μm) were preblocked with PBS containing 3% bovine serum albumin (Sigma-Aldrich, St. Louis, Mo.) and 0.3% Triton X (Sigma-Aldrich) and incubated, first, with primary antibody overnight, and then with secondary antibody for 1 hour at room temperature. […] Assessment of morphological integration were quantified by counting EGFP+ cells located outside of transplanted cell clusters in retinal whole-mounts. Statistical significance was determined by either the two tailed student t test or ANOVA.
Retinal astrocytes and Müller glia are central to the homeostatic and metabolic support of retinal neurons; whereas, after injury these cells develop glial scar that forms critical barriers to neuron regeneration and integration by retinal progenitor cells. […] Retinal glial morphology was examined by immunolabeling for glial marker GFAP and assessed the level of GFAP expression by Western blot at day 1-7 post injection. Expression of GFAP is widely detected in the normal mouse retinas (FIG. 1a).

[2] = system: transplanted retinal progenitors; test: Differentiation of transplanted retinal progenitors in pretreated host retina (immunohistochemistry); format: in vivo, mouse; conditions: pretreated wild-type hosts, 21 days post transplantation
Method: Mice were anesthetized by intraperitoneal injection of ketamine (62.5 mg/kg) and xylazine (12.5 mg/kg) and transcardially perfused with phosphate buffered saline (PBS) followed by 4% paraformaldehyde in PBS. Retinal flat-mounts or transverse retinal sections (14 μm) were preblocked with PBS containing 3% bovine serum albumin (Sigma-Aldrich, St. Louis, Mo.) and 0.3% Triton X (Sigma-Aldrich) and incubated, first, with primary antibody overnight, and then with secondary antibody for 1 hour at room temperature. The following antibodies were used: Cy3-conjugated monoclonal antibody against GFAP (1:1000; Sigma), Brn-3b (1:200; Santa Cruz Biotechnology; Santa Cruz, Calif.), mouse anti-rhodopsin (1:4000; Rho1D4), chick anti-cone-opsin (1:300), and Cy-2, Cy-3 or Cy-5-conjugated secondary antibody (Jackson ImmunoResearch; West Grove, Pa.). Assessment of morphological integration were quantified by counting EGFP+ cells located outside of transplanted cell clusters in retinal whole-mounts. Statistical significance was determined by either the two tailed student t test or ANOVA.
At 2 days before transplantation, 2 μl of a solution containing either α-AA (1 μg/μl) or saline (control) was injected unilaterally into the subretinal space of recipient wild-type or Gnat1^−/− mice (>2 months old). […]

[3] = system: cone photoreceptor function; test: Flicker ERG under cone-isolation conditions in Rho-/- mice; format: in vivo, mouse; conditions: Rho-/- mice injected subretinally at 6 weeks old, 4 weeks later, vs saline contralateral eye
Method: Mice carrying rhodopsin deficiency (Rho^−/−) were used to determine if injection of alpha-aminoadipate (αAA) is sufficient to induce neuroregeneration from endogenous retinal progenitors, e.g., Muller cells, leading to preservation and restoration of photoreceptor cell function. Light-evoked photoreceptor responses and retinal functions in Rho^−/− mice that received αAA or saline injection were assessed using ERGS and whole cell-attached patch clamp.
To determine if αAA induces functional neuroregeneration in Rho^−/− mice, αAA was injected subretinally into the left eyes of 6 week-old Rho^−/− mice, while their contralateral eyes were injected with saline and served as controls. After a 4 week survival period to allow regeneration of new photoreceptors, mouse ERG was measured in both eyes and then performed immunohistochemistry to identify photoreceptor cells. Rho^−/− mice lack the rod photoreceptor cell component or ERG a-wave. As cones consist of ˜3% of photoreceptors in mice, it is difficult to assess cone action a-wave; therefore, flicker ERG photometry under cone-isolation conditions was used to measure cone functions. […]

cone photoreceptor cells = test: Cone opsin immunohistochemistry of retinal sections of Rho-/- mice; format: in vivo, mouse
Method: To determine if αAA induces functional neuroregeneration in Rho^−/− mice, αAA was injected subretinally into the left eyes of 6 week-old Rho^−/− mice, while their contralateral eyes were injected with saline and served as controls. After a 4 week survival period to allow regeneration of new photoreceptors, mouse ERG was measured in both eyes and then performed immunohistochemistry to identify photoreceptor cells. Rho^−/− mice lack the rod photoreceptor cell component or ERG a-wave. As cones consist of ˜3% of photoreceptors in mice, it is difficult to assess cone action a-wave; therefore, flicker ERG photometry under cone-isolation conditions was used to measure cone functions. […] The ERG b-wave arises from neural activity downstream of photoreceptors, its presence in the αAA treated eye has a very important implication: not only is the treatment creating new or preserving existing photoreceptors, such photoreceptors are integrating into the existing retinal circuitry in such a way as to elicit activity in downstream neurons (most likely bipolar cells). […] Consistent with the presence of ERG b-waves in αAA-treated eye, light-elicited spiking responses in some of the ganglion cells were observed (n=4/9) (FIG. 15 A, B). […] In contrast, no light-elicited responses in ganglion cells were recorded from the saline-injected eyes (n=4/4, FIG. 14C). […]

Muller cells = conditions: wild-type mice with normal retinas, Takeda et al. 2009; cited from earlier work

## NC(CCCC(=O)O)C(=O)O (stereo not drawn) [α-AA, alpha-aminoadipate]
[1]; by day 7 post injection
  GFAP immunostaining at the injection site: reappeared at the injection site
[1]; single subretinal injection 1 μg/μl, 1-3 days post injection
  GFAP expression around the injection site (immunolabeling): effectively eliminated GFAP expression
[2]
  EGFP+ cells integrated into the ONL cone-opsin positive: 12%
  EGFP+ cells integrated into the ONL positive for rhodopsin: Approximately 80%
[3]
  ERG b-wave (flicker ERG): sizable b-wave
Cone photoreceptor cells; single intraocular injection
  retinal neuron damage: does not cause apparent retinal neuron damage
Cone photoreceptor cells; single subretinal injection at 6 weeks old, vs saline-treated control
  number of cone photoreceptor cells: increased number of cone photoreceptor cells
Muller cells
  Muller cell proliferation in the retina: can stimulate Muller cell proliferation
